Test results from patent publication US4346076A, “Bis-tetrazoylmethyl substituted cephalosporin antibiotics” (Eli Lilly and Company, priority 1980, dated 1982).
Values after ≈ are worked out from the molar mass of the structure shown. Where two headings read alike, the source gives them in different places.

Assays:
Experiment in all cases: in vitro antibacterial activity, agar dilution
Format in all cases: cell-based
[1] = tested on: Bordetella bronchoseptica; details: strain 16, read-out: Minimum Inhibitory Concentration
Source text: (§1) The bis-tetrazol-thiomethyl substituted cephalosporins of this invention are broad spectrum antibiotics which inhibit the growth of both gram positive and gram negative microorganisms which are pathogenic to man and animals. […] The following Table 2 lists the minimum inhibitory concentrations of representative compounds of the invention.
(§2) The data in TABLE 2 were obtained in the agar dilution test method using Mueller-Hinton agar containing two percent Supplement C (Difco). Serial two-fold dilutions were run with the highest concentration on test at 128 mcg/ml.

Citrobacter freundii = details: strain CF17, read-out: Minimum Inhibitory Concentration
Source text: as §1, §2

Enterobacter aerogenes = details: Klebsiella aerogenes, read-out: Minimum Inhibitory Concentration
Source text: as §1, §2

Enterobacter cloacae = tested on: Enterobacter cloacae
Source text: as §1, §2

Escherichia coli = tested on: Escherichia coli
Source text: as §1, §2

Haemophilus influenzae = details: Haemophilus influenzae, read-out: Minimum Inhibitory Concentration
Source text: as §1, §2

Klebsiella sp. = tested on: Klebsiella sp.
Source text: as §1, §2

Proteus inconstans = details: Providencia alcalifaciens; strain PR33; read-out: Minimum Inhibitory Concentration
Source text: as §1, §2

Proteus morganii = details: Morganella morganii; strain PR15; read-out: Minimum Inhibitory Concentration
Source text: as §1, §2

Proteus rettgeri = details: Providencia rettgeri, read-out: Minimum Inhibitory Concentration
Source text: as §1, §2

Pseudomonas aeruginosa = tested on: Pseudomonas aeruginosa
Source text: as §1, §2

Salmonella sp. = tested on: Salmonella sp.
Source text: as §1, §2

Serratia marcescens = tested on: Serratia marcescens
Source text: as §1, §2

Shigella sonnei = details: strain N9, read-out: Minimum Inhibitory Concentration
Source text: as §1, §2

Staphylococcus aureus = tested on: Staphylococcus aureus
Source text: as §1, §2

[2] = tested on: Staphylococcus epidermidis
Source text: as §1, §2

Streptococcus Group A = details: strain C203; read-out: Minimum Inhibitory Concentration
Source text: as §1, §2

Streptococcus Group D = details: read-out: Minimum Inhibitory Concentration
Source text: as §1, §2

Streptococcus pneumoniae = details: strain PARK, read-out: Minimum Inhibitory Concentration
Source text: as §1, §2

[3] = strain 265A, read-out: Minimum Inhibitory Concentration
[4] = strain EB5, read-out: Minimum Inhibitory Concentration
[5] = strain EC14, read-out: Minimum Inhibitory Concentration
[6] = strain N10, read-out: Minimum Inhibitory Concentration
[7] = strain TEM, read-out: Minimum Inhibitory Concentration
[8] = strain KAE, read-out: Minimum Inhibitory Concentration
[9] = strain X26, read-out: Minimum Inhibitory Concentration
[10] = strain Ps18, read-out: Minimum Inhibitory Concentration
[11] = strain X239, read-out: Minimum Inhibitory Concentration
[12] = strain X528, read-out: Minimum Inhibitory Concentration
[13] = strain 1335, read-out: Minimum Inhibitory Concentration
[14] = strain X514, read-out: Minimum Inhibitory Concentration
[15] = strain SE3, read-out: Minimum Inhibitory Concentration
[16] = strain X93, read-out: Minimum Inhibitory Concentration
[17] = read-out: Minimum Inhibitory Concentration
[18] = strain V41, read-out: Minimum Inhibitory Concentration
[19] = strain X1.1, read-out: Minimum Inhibitory Concentration
[20] = strain X400, read-out: Minimum Inhibitory Concentration
[21] = strain EPI1, read-out: Minimum Inhibitory Concentration
[22] = strain EPI2, read-out: Minimum Inhibitory Concentration

| Compound | MIC [1] [µg/mL] | MIC (Citrobacter freundii) [µg/mL] | MIC (Enterobacter aerogenes; strain C32) [µg/mL] | MIC (Enterobacter aerogenes; strain EB17) [µg/mL] | MIC (Enterobacter aerogenes; strain X68) [µg/mL] | MIC (Enterobacter cloacae; [3]) [µg/mL] | MIC (Enterobacter cloacae; [4]) [µg/mL] | MIC (Escherichia coli; [5]) [µg/mL] | MIC (Escherichia coli; [6]) [µg/mL] | MIC (Escherichia coli; [7]) [µg/mL] | MIC (Klebsiella sp.; [8]) [µg/mL] | MIC (Klebsiella sp.; [9]) [µg/mL] | MIC (Proteus inconstans) [µg/mL] | MIC (Proteus morganii) [µg/mL] | MIC (Proteus rettgeri; strain C24) [µg/mL] | MIC (Proteus rettgeri; strain PR7) [µg/mL] | MIC (Pseudomonas aeruginosa; [10]) [µg/mL] | MIC (Pseudomonas aeruginosa; [11]) [µg/mL] | MIC (Pseudomonas aeruginosa; [12]) [µg/mL] | MIC (Salmonella sp.; [13]) [µg/mL] | other results |
| --- | --- | --- | --- | --- | --- | --- | --- | --- | --- | --- | --- | --- | --- | --- | --- | --- | --- | --- | --- | --- | --- |
| CO[C@@]1(NC(=O)Cc2cccs2)C(=O)N2C(C(=O)O)=C(CSc3nnnn3Cc3nnn[nH]3)CS[C@@H]21 [A, 7-(2-thienylacetamido)-7-methoxy-3-[1-(1H-tetrazole-5-ylmethyl)-1H-tetrazole-5-ylthiomethyl]-3-cephem-4-carboxylic acid] | > 128 | > 128 | > 128 | > 128 | 4 (≈ 7.26 µM) | > 128 | > 128 | 4 (≈ 7.26 µM) | 8 (≈ 14.5 µM) | 4 (≈ 7.26 µM) | 4 (≈ 7.26 µM) | 1 (≈ 1.82 µM) | 4 (≈ 7.26 µM) | 64 (≈ 116 µM) | 1 (≈ 1.82 µM) | 4 (≈ 7.26 µM) | > 128 | > 128 | > 128 | 2 (≈ 3.63 µM) | MIC (Haemophilus influenzae; strain 76, resistant strain): 0.25 µg/mL (≈ 0.454 µM); MIC (Haemophilus influenzae; strain C.L., sensitive strain): 0.25 µg/mL (≈ 0.454 µM); MIC (Salmonella sp.; [14]): 1 µg/mL (≈ 1.82 µM); MIC (Serratia marcescens; [15]): 64 µg/mL (≈ 116 µM); MIC (Serratia marcescens; [16]): 16 µg/mL (≈ 29.1 µM); MIC (Shigella sonnei): 8 µg/mL (≈ 14.5 µM); MIC (Staphylococcus aureus; [17]): 8 µg/mL (≈ 14.5 µM); MIC (Staphylococcus aureus; [18]): 2 µg/mL (≈ 3.63 µM); MIC (Staphylococcus aureus; [19]): 2 µg/mL (≈ 3.63 µM); MIC (Staphylococcus aureus; [20]): 16 µg/mL (≈ 29.1 µM); MIC [2, 21]: 16 µg/mL (≈ 29.1 µM); MIC [2, 22]: 8 µg/mL (≈ 14.5 µM); MIC (Streptococcus Group A): 0.5 µg/mL (≈ 0.908 µM); MIC (Streptococcus Group D; strain 9960): > 128 µg/mL; MIC (Streptococcus Group D; strain X66): 64 µg/mL (≈ 116 µM); MIC (Streptococcus pneumoniae): 4 µg/mL (≈ 7.26 µM) |
| Cn1nnnc1Cn1nnnc1SCC1=C(C(=O)O)N2C(=O)[C@@H](NC(=O)Cc3cccs3)[C@H]2SC1 [B] | 8 (≈ 15 µM) | > 128 | 32 (≈ 59.9 µM) | 16 (≈ 29.9 µM) | 0.5 (≈ 0.935 µM) | > 128 | > 128 | 2 (≈ 3.74 µM) | 4 (≈ 7.48 µM) | 8 (≈ 15 µM) | > 128 | 0.5 (≈ 0.935 µM) | 64 (≈ 120 µM) | 64 (≈ 120 µM) | 8 (≈ 15 µM) | 4 (≈ 7.48 µM) | > 128 | > 128 | > 128 | 1 (≈ 1.87 µM) | MIC (Haemophilus influenzae; strain 76, resistant strain): 0.5 µg/mL (≈ 0.935 µM); MIC (Haemophilus influenzae; strain C.L., sensitive strain): 1 µg/mL (≈ 1.87 µM); MIC (Salmonella sp.; [14]): 0.5 µg/mL (≈ 0.935 µM); MIC (Serratia marcescens; [15]): > 128 µg/mL; MIC (Serratia marcescens; [16]): > 128 µg/mL; MIC (Shigella sonnei): 4 µg/mL (≈ 7.48 µM); MIC (Staphylococcus aureus; [17]): 4 µg/mL (≈ 7.48 µM); MIC (Staphylococcus aureus; [18]): 2 µg/mL (≈ 3.74 µM); MIC (Staphylococcus aureus; [19]): 0.5 µg/mL (≈ 0.935 µM); MIC (Staphylococcus aureus; [20]): 32 µg/mL (≈ 59.9 µM); MIC [2, 21]: 4 µg/mL (≈ 7.48 µM); MIC [2, 22]: 4 µg/mL (≈ 7.48 µM); MIC (Streptococcus Group A): 1 µg/mL (≈ 1.87 µM); MIC (Streptococcus Group D; strain 9960): 64 µg/mL (≈ 120 µM); MIC (Streptococcus Group D; strain X66): 128 µg/mL (≈ 239 µM); MIC (Streptococcus pneumoniae): 2 µg/mL (≈ 3.74 µM) |
| O=CO[C@@H](C(=O)N[C@@H]1C(=O)N2C(C(=O)O)=C(CSc3nnnn3Cc3nnn[nH]3)CS[C@H]12)c1ccccc1 [C] | 16 (≈ 28.6 µM) | > 128 | 4 (≈ 7.16 µM) | 2 (≈ 3.58 µM) | 0.25 (≈ 0.448 µM) | > 128 | 128 (≈ 229 µM) | 0.25 (≈ 0.448 µM) | 2 (≈ 3.58 µM) | 8 (≈ 14.3 µM) | > 128 | 2 (≈ 3.58 µM) | 2 (≈ 3.58 µM) | 2 (≈ 3.58 µM) | 0.5 (≈ 0.895 µM) | 4 (≈ 7.16 µM) | > 128 | > 128 | > 128 | 2 (≈ 3.58 µM) | MIC (Haemophilus influenzae; strain 251, resistant strain): 4 µg/mL (≈ 7.16 µM); MIC (Haemophilus influenzae; strain Brun, sensitive strain): 4 µg/mL (≈ 7.16 µM); MIC (Salmonella sp.; [14]): 1 µg/mL (≈ 1.79 µM); MIC (Serratia marcescens; [15]): > 128 µg/mL; MIC (Serratia marcescens; [16]): 32 µg/mL (≈ 57.3 µM); MIC (Shigella sonnei): 1 µg/mL (≈ 1.79 µM); MIC (Staphylococcus aureus; [17]): 16 µg/mL (≈ 28.6 µM); MIC (Staphylococcus aureus; [18]): 8 µg/mL (≈ 14.3 µM); MIC (Staphylococcus aureus; [19]): 1 µg/mL (≈ 1.79 µM); MIC (Staphylococcus aureus; [20]): 128 µg/mL (≈ 229 µM); MIC [2, 21]: 8 µg/mL (≈ 14.3 µM); MIC [2, 22]: 32 µg/mL (≈ 57.3 µM); MIC (Streptococcus Group A): 0.5 µg/mL (≈ 0.895 µM); MIC (Streptococcus Group D; strain 9960): 128 µg/mL (≈ 229 µM); MIC (Streptococcus Group D; strain X66): > 128 µg/mL; MIC (Streptococcus pneumoniae): 0.25 µg/mL (≈ 0.448 µM) |
